# Experimental data as given in ChEMBL document CHEMBL1201862, “PubChem BioAssay data set” (2004).
#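 Tested at 5 concentrations; 48 h exposure; 96-well plates; endpoints linearly interpolated, else capped at highest concentration. The concentration for 50% growth inhibition is given as GI50.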 Activity calls are given as the source filed them. Cut-off read from the data, not from the text of the source: active = GI50 up to about 1.1 µM and inactive = higher.
# Key:
# Assay in all cases: inhibition of tumour cell growth, NCI panel, 48 h
# UO-31 = tested on: UO-31
# A498 = tested on: A498
# K562 = tested on: K562
# SF-539 = tested on: SF-539
# SNB-19 = tested on: SNB-19
# UACC-62 = tested on: UACC-62
# SF-295 = tested on: SF-295
# ACHN = tested on: ACHN
# IGROV-1 = tested on: IGROV-1
# HCT-116 = tested on: HCT-116
# UACC-257 = tested on: UACC-257
# SN12C = tested on: SN12C
# MCF7 = tested on: MCF7
# T47D = tested on: T47D
# Malme-3M = tested on: Malme-3M
# HCT-15 = tested on: HCT-15
# HOP-92 = tested on: HOP-92
# CCRF-CEM = tested on: CCRF-CEM
# PC-3 = tested on: PC-3
# NCI-H522 = tested on: NCI-H522
Structure (SMILES),GI50 (UO-31),GI50 (A498),GI50 (K562),GI50 (SF-539),GI50 (SNB-19),GI50 (UACC-62),GI50 (SF-295),GI50 (ACHN),GI50 (IGROV-1),GI50 (HCT-116),GI50 (UACC-257),GI50 (SN12C),GI50 (MCF7),GI50 (T47D),GI50 (Malme-3M),GI50 (HCT-15),GI50 (HOP-92),GI50 (CCRF-CEM),GI50 (PC-3),GI50 (NCI-H522)
Cc1cccc(N2CCN(S(=O)(=O)c3ccc(Cl)cc3)C2=N)c1C,47.9 µM (inactive),> 100 µM (inactive),33.1 µM (inactive),> 100 µM (inactive),> 100 µM (inactive),38.4 µM (inactive),77.4 µM (inactive),> 100 µM (inactive),25.1 µM (inactive),> 100 µM (inactive),> 100 µM (inactive),> 100 µM (inactive),> 100 µM (inactive),> 100 µM (inactive),,,,,,
C1C2CC3CC1CC(Nc1nc(NC45CC6CC(CC(C6)C4)C5)nc(NC45CC6CC(CC(C6)C4)C5)n1)(C2)C3,> 38.3 µM (inactive),> 51.4 µM (inactive),> 62.5 µM (inactive),> 100 µM (inactive),43.5 µM (inactive),> 44.7 µM (inactive),> 56.1 µM (inactive),51.2 µM (inactive),,> 51.9 µM (inactive),> 28.8 µM (inactive),> 100 µM (inactive),55.1 µM (inactive),72.1 µM (inactive),> 100 µM (inactive),62.1 µM,> 100 µM (inactive),> 92.9 µM (inactive),> 67.3 µM (inactive),
CC(C)(C)C(=O)Nc1c(C=O)ccc2[nH]cnc12,> 100 µM (inactive),> 100 µM (inactive),42.8 µM (inactive),> 100 µM (inactive),> 100 µM (inactive),,> 100 µM (inactive),> 100 µM (inactive),> 100 µM (inactive),> 100 µM (inactive),91.4 µM (inactive),> 100 µM (inactive),60.1 µM (inactive),> 100 µM (inactive),,> 100 µM,> 100 µM (inactive),33.3 µM (inactive),74.3 µM (inactive),> 100 µM (inactive)
CCc1ccc2oc(-c3cc(O)c(-c4nc5cc(CC)ccc5o4)cc3O)nc2c1,> 100 µM (inactive),> 100 µM (inactive),> 100 µM (inactive),> 100 µM (inactive),> 100 µM (inactive),> 100 µM (inactive),,> 100 µM (inactive),> 100 µM (inactive),> 100 µM (inactive),,> 100 µM (inactive),> 100 µM (inactive),> 100 µM (inactive),,> 100 µM,> 100 µM (inactive),> 100 µM (inactive),> 100 µM (inactive),
C1=C2C3=[N+](CCCC3)CC2Cc2ccsc21 (centres undefined),> 100 µM (inactive),52.8 µM (inactive),> 100 µM (inactive),,56.2 µM (inactive),> 100 µM (inactive),55.3 µM (inactive),> 100 µM (inactive),> 100 µM (inactive),> 100 µM (inactive),33.9 µM (inactive),> 100 µM (inactive),> 100 µM (inactive),22.8 µM (inactive),63 µM (inactive),> 100 µM,69.5 µM (inactive),> 100 µM (inactive),45.1 µM (inactive),62.8 µM (inactive)
ClCCN1CCO/C1=N/c1ccc2c(c1)CCCC2,14 µM (inactive),6.92 µM (inactive),6.7 µM (inactive),4.81 µM (inactive),5.53 µM (inactive),11.3 µM (inactive),12.1 µM (inactive),7.05 µM (inactive),7.48 µM (inactive),13.4 µM (inactive),3.82 µM (inactive),12.6 µM (inactive),,8.51 µM (inactive),7.19 µM (inactive),20 µM,11.2 µM (inactive),11.3 µM (inactive),4.44 µM (inactive),10.8 µM (inactive)
O=C1Nc2ccccc2/C1=N/Nc1ccccc1[N+](=O)[O-],24.3 µM (inactive),32.8 µM (inactive),66.5 µM (inactive),9.89 µM (inactive),48.5 µM (inactive),63.8 µM (inactive),56.9 µM (inactive),11.6 µM (inactive),0.185 µM (active),25.9 µM (inactive),56.1 µM (inactive),40.7 µM (inactive),> 100 µM (inactive),38.5 µM (inactive),,55.5 µM,,91.6 µM (inactive),57 µM (inactive),21.8 µM (inactive)
COc1ccc(-n2c(=O)c3nc(S)[nH]c3n(-c3ccc(OC)cc3)c2=S)cc1,> 100 µM (inactive),> 100 µM (inactive),> 100 µM (inactive),> 100 µM (inactive),,> 100 µM (inactive),> 100 µM (inactive),> 100 µM (inactive),> 100 µM (inactive),> 100 µM (inactive),> 100 µM (inactive),> 100 µM (inactive),> 100 µM (inactive),> 100 µM (inactive),,> 100 µM,> 100 µM (inactive),> 100 µM (inactive),> 100 µM (inactive),57.4 µM (inactive)
Cc1ccccc1-n1c(=O)nc2n(-c3ccc(C(C)(C)C)cc3)c3ccccc3cc-2c1=O,26.4 µM (inactive),30.5 µM (inactive),37.8 µM (inactive),17.8 µM (inactive),21.5 µM (inactive),19.2 µM (inactive),20.4 µM (inactive),32.5 µM (inactive),24.3 µM (inactive),15.5 µM (inactive),17.2 µM (inactive),17.7 µM (inactive),22.9 µM (inactive),26.2 µM (inactive),,16.6 µM,21.4 µM (inactive),19.8 µM (inactive),19.8 µM (inactive),21.7 µM (inactive)
COC(=O)[C@H](Cc1c[nH]c2ccccc12)NP(=O)(O)OC[C@H]1O[C@@H](n2cc(C)c(=O)[nH]c2=O)C[C@@H]1N=[N+]=[N-],> 100 µM (inactive),,> 100 µM (inactive),,> 100 µM (inactive),> 100 µM (inactive),> 100 µM (inactive),,> 100 µM (inactive),> 100 µM (inactive),> 100 µM (inactive),> 100 µM (inactive),> 100 µM (inactive),> 100 µM (inactive),> 100 µM (inactive),> 100 µM,> 100 µM (inactive),> 100 µM (inactive),> 100 µM (inactive),> 100 µM (inactive)
C[n+]1c2ccccc2c(C(=O)Nc2ccc(S(=O)(=O)Nc3ccnn3-c3ccccc3)cc2)c2ccccc21,> 100 µM (inactive),,> 100 µM (inactive),> 100 µM (inactive),> 100 µM (inactive),> 100 µM (inactive),> 100 µM (inactive),> 100 µM (inactive),> 100 µM (inactive),> 100 µM (inactive),> 100 µM (inactive),> 100 µM (inactive),> 100 µM (inactive),> 100 µM (inactive),> 100 µM (inactive),> 100 µM,,,> 100 µM (inactive),
NC(=O)C(=O)C(c1ccccc1)S(=O)(=O)Cc1ccccc1 (centres undefined),> 100 µM (inactive),,> 100 µM (inactive),> 100 µM (inactive),> 100 µM (inactive),> 100 µM (inactive),> 100 µM (inactive),> 100 µM (inactive),> 100 µM (inactive),> 100 µM (inactive),> 100 µM (inactive),> 100 µM (inactive),> 100 µM (inactive),> 100 µM (inactive),,> 100 µM,> 100 µM (inactive),> 100 µM (inactive),> 100 µM (inactive),> 100 µM (inactive)
CCOC(=O)/C=C(/C(=O)OCC)n1cc(C)c(=O)n(Cc2cnnn2CCCCOC(C)=O)c1=O,18.4 µM (inactive),,18.7 µM (inactive),15.1 µM (inactive),> 100 µM (inactive),19 µM (inactive),> 100 µM (inactive),11.2 µM (inactive),19 µM (inactive),15.1 µM (inactive),26.3 µM (inactive),45.2 µM (inactive),13.6 µM (inactive),24 µM (inactive),,12.6 µM,0.0906 µM (active),1.13 µM (inactive),68.5 µM (inactive),3.21 µM (inactive)
N#Cc1nnn(C2CCCCC2)c1O,> 100 µM (inactive),> 100 µM (inactive),,> 100 µM (inactive),> 100 µM (inactive),> 100 µM (inactive),> 100 µM (inactive),> 100 µM (inactive),> 100 µM (inactive),> 100 µM (inactive),> 100 µM (inactive),> 100 µM (inactive),> 100 µM (inactive),> 100 µM (inactive),> 100 µM (inactive),> 100 µM,,> 100 µM (inactive),> 100 µM (inactive),> 100 µM (inactive)
O=C(O)c1cnc(-n2[nH]c3c(c2=O)CCCC3)[nH]c1=O,> 100 µM (inactive),> 100 µM (inactive),> 100 µM (inactive),> 100 µM (inactive),> 100 µM (inactive),> 100 µM (inactive),> 100 µM (inactive),> 100 µM (inactive),> 100 µM (inactive),> 100 µM (inactive),> 100 µM (inactive),> 100 µM (inactive),,> 100 µM (inactive),> 100 µM (inactive),> 100 µM,83.9 µM (inactive),> 100 µM (inactive),> 100 µM (inactive),> 100 µM (inactive)
Cc1c(C#N)c(=N)oc2ccccc12,> 100 µM (inactive),> 100 µM (inactive),> 100 µM (inactive),> 100 µM (inactive),> 100 µM (inactive),> 100 µM (inactive),> 100 µM (inactive),> 100 µM (inactive),> 100 µM (inactive),> 100 µM (inactive),> 100 µM (inactive),> 100 µM (inactive),> 100 µM (inactive),75.7 µM (inactive),> 100 µM (inactive),83.2 µM,> 100 µM (inactive),> 10 µM (inactive),> 100 µM (inactive),
